Experimental data reported in PMC11784145, “Efficacy and in vitro pharmacological assessment of novel N-hydroxypyridinediones as hepatitis B virus ribonuclease H inhibitors” (Antimicrobial Agents and Chemotherapy, 2024).

Columns and labels:
[1] = Parallel artificial membrane permeability assay (PAMPA); type: in vitro ADME; conditions: for Papp 4 (PAMPA): pH 7.4, replicate 4
Protocol: Compound Papp values were determined by normalizing the experimental compound absorbance to the compounds’ absorbances at equilibrium, membrane porosity, buffer volume, and time (s). Two or more replicate assays were obtained on separate days for each pH.

HepDES19 cells = conditions: read-out: HepDES19 CC50; 72 h, MTS; highest concentration tested 100 µM; mean ± SD
[2] = biological target: T1, human ribonuclease H1 (huRNase H1) (Homo sapiens, UniProt O60930); experiment: Human RNase H1 inhibition, fluorescent biochemical assay
T1 construct: made in house; host or cells: Escherichia coli
T1 sequence (O60930 1-286): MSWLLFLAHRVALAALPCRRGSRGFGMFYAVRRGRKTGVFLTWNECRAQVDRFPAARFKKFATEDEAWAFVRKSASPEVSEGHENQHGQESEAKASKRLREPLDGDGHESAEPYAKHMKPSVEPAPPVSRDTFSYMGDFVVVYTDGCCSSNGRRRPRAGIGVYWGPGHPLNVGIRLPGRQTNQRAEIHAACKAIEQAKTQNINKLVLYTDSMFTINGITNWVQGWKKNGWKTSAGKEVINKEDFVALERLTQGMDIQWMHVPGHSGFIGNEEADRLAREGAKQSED
Protocol: Recombinant human ribonuclease H1 (huRNase H1) was expressed in Escherichia coli and purified by nickel affinity chromatography, as described previously ([30]). […] The heteroduplex substrate was prepared, as described by Ponzar et al. ([30]). Reactions were initiated by the addition of MgCl2 (5 mM final) and were performed on a Biotek Synergy HTX multi-mode plate reader at 28°C.
Maximum rates of fluorescence increase were calculated using the Biotek Gen5 v3.15 software and percentage activity was determined for each compound concentration by subtracting rates from no enzyme reactions and normalizing to DMSO reactions. […] Reactions were performed at least three times on separate days.

[3] = Solubility limit, turbidimetric assay; type: physicochemical; conditions: upper limit 200 µM
Protocol: Solubility limits were determined by a turbidimetric assay, as described ([27]), with the solubility limit being defined as the compound concentration where light scattering began to rise. Two or more replicate assays were performed for each compound at each pH on different days.

[4] = system: HBV replication (HBV plus-polarity DNA strand); experiment: HBV replication inhibition, strand preferential qPCR in hepDES19 cells; type: cell-based, hepatitis B virus; conditions: for EC50: 72 h exposure, HBV plus-polarity strand suppression, highest concentration tested 100 µM, mean ± SD, read-out: HepDES19 EC50
Protocol: HBV replication inhibition was measured in hepDES19 cells following 72 h compound exposure without compound replenishment. EC50 values were determined by HBV plus-polarity strand suppression using a strand preferential qPCR assay, as described previously ([28]). Three or more replicate values were obtained on different days.

Microsome stability = type: in vitro ADME, human; conditions: human, microsomes
Protocol: Human liver microsomes (gender pooled, 50 individuals) were purchased from BioIVT and stored at −80°C until use. […] Reactions were initiated by addition of 1.2 mM NADPH. […] Microsomal proteins were pelleted at 4,000 × g and the supernatant was analyzed via LCMS/MS. […] The ln percent remaining values were plotted against time, the negative slope was taken (k), and compound half-life (t1/2) was determined using ln2/k. Intrinsic clearance (Clint [µL/min/mg]) was calculated by (V × ln2)/t1/2, where V is the incubation volume (µL) divided by the protein concentration in the reaction (mg) ([31]).

MDCK-MDR1 cells = experiment: MDCK-MDR1 permeability assay; type: in vitro ADME; conditions: MDCK-MDR1 cells, 10 µM compound, 2 h; actively effluxed if >2
Protocol: MDCK-MDR1 cells were seeded on 96-well, high protein binding immobilon-P membrane plates (Millipore Sigma) at 2.4 × 10^4 cells per well for 4 days. Media were then decanted, and the cells were equilibrated with Hanks balanced salt solution (HBSS) supplemented with 10 mM CaCl2 and 1 mM MgCl2 for 1 h. Compound (10 µM) was then added to the apical side to assess active transport and to the basolateral side to assess active efflux. The cells were incubated with compound for 2 h with shaking at 37°C. Samples (50 µL) were retrieved from the recipient wells and mixed with 150 µL acetonitrile (ACN) and internal standard (1:1 of 200 ng/mL chloridazon:enalapril). Samples were pelleted at 4,000 × g and the supernatant was analyzed by liquid-chromatography/tandem mass spectrometry (LCMS/MS) analyses. […]. Active efflux was determined by Papp B/A/Papp A/B.
Tight junction formation was assessed by lucifer yellow permeation immediately following sample retrieval. Briefly, lucifer yellow (10 µM) was added to the apical wells and HBSS was added to the basolateral wells for 1 h with shaking at 37°C, after which sample was collected from the basolateral side and read on a Biotek Synergy HTX multi-mode plate reader with 485/20 excitation and 520/20 emission filters defined by the Center Wavelength/band-pass values. The percent lucifer yellow fluorescence was determined by subtracting the HBSS relative fluorescent units (RFU) from the sample RFU and normalizing to the lucifer yellow positive control RFU. Lucifer yellow permeation was determined to be acceptable if ≤3%.

[5] = pH 5 (fed simulated intestinal fluid)
[6] = pH 6.5 (fasted simulated intestinal fluid)

Compound	Avg Papp (PAMPA) ([1]; FeSSIF pH 5)	Interpretation (PAMPA Papp) ([1]; FeSSIF pH 5)	Papp 1 (PAMPA) ([1]; FeSSIF pH 5, replicate 1)	Papp 2 (PAMPA) ([1]; FeSSIF pH 5, replicate 2)	Avg Papp (PAMPA) ([1]; pH 7.4)	Interpretation (PAMPA Papp) ([1]; pH 7.4)	Papp 1 (PAMPA) ([1]; pH 7.4, replicate 1)	Papp 2 (PAMPA) ([1]; pH 7.4, replicate 2)	Papp 3 (PAMPA) ([1]; pH 7.4, replicate 3)	CC50 (HepDES19 cells)	Average Sol (solubility limit) [3, 5]	Sol 1 (solubility limit) ([3]; pH 5, replicate 1)	Sol 2 (solubility limit) ([3]; pH 5, replicate 2)	Average Sol (solubility limit) [3, 6]	Sol 1 (solubility limit) ([3]; pH 6.5, replicate 1)	Sol 2 (solubility limit) ([3]; pH 6.5, replicate 2)	Average Sol (solubility limit) ([3]; pH 7.4 (DMEM-F12 with 10% FBS))	Sol 1 (solubility limit) ([3]; pH 7.4, replicate 1)	Sol 2 (solubility limit) ([3]; pH 7.4, replicate 2)	HepDES19 SI (CC50/EC50) [4]	further results
CC(=NOCc1ccc(C)cc1)c1c(C)cc(=O)n(O)c1O [Compound 1462]	10.1 ×10⁻⁶ cm/s	H (H: Papp > 1*10-6)	14.7 ×10⁻⁶ cm/s	5.56 ×10⁻⁶ cm/s	1.44 ×10⁻⁶ cm/s	H (H: Papp > 1*10-6)	0.513 ×10⁻⁶ cm/s	0.971 ×10⁻⁶ cm/s	2.84 ×10⁻⁶ cm/s	33100 ± 5240 nM	> 200 µM	> 200 µM	> 200 µM	> 200 µM	> 200 µM	> 200 µM	> 200 µM	> 200 µM	> 200 µM	112	Selectivity of HBV replication inhibition over huRNase H1 (huRNase H1 IC50 versus HBV EC50) [2]: at least 10 fold; EC50 [4]: 295 ± 122 nM; Clearance (intrinsic clearance, Clint) (Microsome stability): 34.8 µL/min/mg; Half-life (Microsome stability): >30 min; Efflux Ratio (Papp B-A/A-B) (MDCK-MDR1 cells): 1.31
CC(=NOCc1ccc(F)cc1F)c1c(C)cc(=O)n(O)c1O [Compound 1464]	36.2 ×10⁻⁶ cm/s	H (H: Papp > 1*10-6)	14.4 ×10⁻⁶ cm/s	50.1 ×10⁻⁶ cm/s	2.49 ×10⁻⁶ cm/s	H (H: Papp > 1*10-6)	2.62 ×10⁻⁶ cm/s	2.31 ×10⁻⁶ cm/s	2.3 ×10⁻⁶ cm/s	63600 ± 27000 nM	> 200 µM	> 200 µM	> 200 µM	> 200 µM	> 200 µM	> 200 µM	> 200 µM	> 200 µM	> 200 µM	281	Papp 3 (PAMPA) ([1]; FeSSIF pH 5, replicate 3): 44.2 ×10⁻⁶ cm/s; Papp 4 (PAMPA) [1]: 2.73 ×10⁻⁶ cm/s; Selectivity of HBV replication inhibition over huRNase H1 (huRNase H1 IC50 versus HBV EC50) [2]: at least 10 fold; Sol 3 (solubility limit) ([3]; pH 5, replicate 3): > 200 µM; EC50 [4]: 188 ± 63 nM; Half-life (Microsome stability): >30 min; Efflux Ratio (Papp B-A/A-B) (MDCK-MDR1 cells): 1.04
CC(=NOCc1ccc(Cl)cc1)c1c(C)cc(=O)n(O)c1O [Compound 1466]	20.4 ×10⁻⁶ cm/s	H (H: Papp > 1*10-6)	23.2 ×10⁻⁶ cm/s	17.6 ×10⁻⁶ cm/s	1.69 ×10⁻⁶ cm/s	H (H: Papp > 1*10-6)	0.299 ×10⁻⁶ cm/s	2.48 ×10⁻⁶ cm/s	2.29 ×10⁻⁶ cm/s	46600 ± 13600 nM	> 200 µM	> 200 µM	> 200 µM	> 200 µM	> 200 µM	> 200 µM	> 200 µM	> 200 µM	> 200 µM	130	Selectivity of HBV replication inhibition over huRNase H1 (huRNase H1 IC50 versus HBV EC50) [2]: at least 10 fold; EC50 [4]: 359 ± 240 nM; Half-life (Microsome stability): >30 min
CC(=NOCc1cc(F)ccc1F)c1c(C)cc(=O)n(O)c1O [Compound 1810]	20.7 ×10⁻⁶ cm/s	H (H: Papp > 1*10-6)	17.2 ×10⁻⁶ cm/s	24.2 ×10⁻⁶ cm/s	3.23 ×10⁻⁶ cm/s	H (H: Papp > 1*10-6)	1.13 ×10⁻⁶ cm/s	2.26 ×10⁻⁶ cm/s	7.59 ×10⁻⁶ cm/s	> 100000 nM	167 µM	100 µM	> 200 µM	100 µM	100 µM	100 µM	167 µM	> 200 µM	100 µM	54.0	Papp 4 (PAMPA) [1]: 1.29 ×10⁻⁶ cm/s; Papp 5 (PAMPA) ([1]; pH 7.4, replicate 5): 3.89 ×10⁻⁶ cm/s; IC50 ([2]; recombinant huRNase H1, RNA:DNA heteroduplex substrate): 820 nM; Sol 3 (solubility limit) ([3]; pH 5, replicate 3): > 200 µM; Sol 3 (solubility limit) ([3]; pH 7.4, replicate 3): > 200 µM; EC50 [4]: 1850 ± 758 nM
